Assay results: ChEMBL document CHEMBL4138142, “Antibacterial 3,6-Disubstituted 4-Hydroxy-5,6-dihydro-2H-pyran-2-ones from Serratia plymuthica MF371-2” (J Nat Prod, 2017)
In brackets after ≈: the same amount, converted by molar mass.

What was measured:
Acinetobacter baumannii = assay: Antibacterial activity against Acinetobacter baumannii LMG1041 after 16 to 24 hrs by broth microdilution method; format: functional
[1] = Cytotoxicity against human HepG2 cells after 48 hrs by XTT assay; format: cell-based
Staphylococcus aureus [2] = assay: Antibacterial activity against methicillin-resistant Staphylococcus aureus LMG 15975 after 16 to 24 hrs by broth microdilution method; format: functional
Enterococcus faecium = assay: Antibacterial activity against vancomycin-resistant Enterococcus faecium 7 by dilution susceptibility test; format: functional
Enterococcus faecalis [3] = assay: Antibacterial activity against vancomycin-resistant Enterococcus faecalis 12 by dilution susceptibility test; format: functional
Staphylococcus aureus [4] = assay: Antibacterial activity against methicillin-resistant Staphylococcus aureus MO17 after 16 to 24 hrs by broth microdilution method; format: functional
Staphylococcus aureus [5] = assay: Antibacterial activity against quinolone-resistant Staphylococcus aureus FR 131 after 16 to 24 hrs by broth microdilution method; format: functional
Streptococcus pneumoniae [6] = assay: Antibacterial activity against macrolide-resistant Streptococcus pneumoniae 956 by dilution susceptibility test; format: functional
Streptococcus pneumoniae [7] = assay: Antibacterial activity against macrolide-resistant Streptococcus pneumoniae 158bg by dilution susceptibility test; format: functional
Pseudomonas aeruginosa = assay: Antibacterial activity against Pseudomonas aeruginosa LMG6395 by dilution susceptibility test; format: functional
Streptococcus pyogenes [8] = assay: Antibacterial activity against macrolide-resistant Streptococcus pyogenes 21 Finland by dilution susceptibility test; format: functional
Klebsiella pneumoniae = assay: Antibacterial activity against Klebsiella pneumoniae LMG20218 by dilution susceptibility test; format: functional
Streptococcus pneumoniae [9] = assay: Antibacterial activity against Streptococcus pneumoniae ATCC 49619 by dilution susceptibility test; format: functional
Staphylococcus aureus [10] = assay: Antibacterial activity against mupirocin-resistant Staphylococcus aureus V321 after 16 to 24 hrs by broth microdilution method; format: functional
Staphylococcus aureus [11] = assay: Antibacterial activity against macrolide-resistant Staphylococcus aureus 6 Holland after 16 to 24 hrs by broth microdilution method; format: functional
Staphylococcus aureus [12] = assay: Antibacterial activity against mupirocin-resistant Staphylococcus aureus V308 after 16 to 24 hrs by broth microdilution method; format: functional
Staphylococcus aureus [13] = assay: Antibacterial activity against Staphylococcus aureus ATCC 29213 after 16 to 24 hrs by broth microdilution method; format: functional
[14] = tested on: Staphylococcus epidermidis; assay: Antibacterial activity against methicillin-resistant Staphylococcus epidermidis TA12 by dilution susceptibility test; format: functional
Staphylococcus aureus [15] = assay: Antibacterial activity against methicillin-resistant Staphylococcus aureus 4384 after 16 to 24 hrs by broth microdilution method; format: functional
Staphylococcus aureus [16] = assay: Antibacterial activity against mupirocin-resistant Staphylococcus aureus V86 after 16 to 24 hrs by broth microdilution method; format: functional
Staphylococcus aureus [17] = assay: Antibacterial activity against mupirocin-resistant Staphylococcus aureus V55 after 16 to 24 hrs by broth microdilution method; format: functional
[18] = tested on: Mycolicibacterium frederiksbergense; assay: Antibacterial activity against Mycobacterium frederiksbergense by dilution susceptibility test; format: functional
[19] = tested on: Staphylococcus epidermidis; assay: Antibacterial activity against methicillin-susceptible Staphylococcus epidermidis RO7 by dilution susceptibility test; format: functional
Streptococcus pyogenes [20] = assay: Antibacterial activity against macrolide-sensitive Streptococcus pyogenes 29A-TF by dilution susceptibility test; format: functional
[21] = Cytotoxicity against human MT4 cells after 48 hrs by XTT assay; format: cell-based
Staphylococcus aureus [22] = assay: Antibacterial activity against Staphylococcus aureus CCUG 1800 after 16 to 24 hrs by broth microdilution method; format: functional
Streptococcus pyogenes [23] = assay: Antibacterial activity against macrolide-resistant Streptococcus pyogenes 2 Finland by dilution susceptibility test; format: functional
Bacillus cereus = assay: Antibacterial activity against Bacillus cereus CCUG 7414 by dilution susceptibility test; format: functional
Staphylococcus aureus [24] = assay: Antibacterial activity against macrolide-resistant Staphylococcus aureus 56 Japan after 16 to 24 hrs by broth microdilution method; format: functional
Streptococcus pneumoniae [25] = assay: Antibacterial activity against tetracycline-resistant Streptococcus pneumoniae TE 122-026 by dilution susceptibility test; format: functional
Staphylococcus aureus [26] = assay: Antibacterial activity against macrolide-resistant Staphylococcus aureus 853E after 16 to 24 hrs by broth microdilution method; format: functional
Escherichia coli = assay: Antibacterial activity against Escherichia coli LMG15862 by dilution susceptibility test; format: functional
Staphylococcus aureus [27] = assay: Antibacterial activity against macrolide-resistant Staphylococcus aureus PK2 after 16 to 24 hrs by broth microdilution method; format: functional
Streptococcus pneumoniae [28] = assay: Antibacterial activity against macrolide-sensitive Streptococcus pneumoniae SP030 by dilution susceptibility test; format: functional
Streptococcus pneumoniae [29] = assay: Antibacterial activity against macrolide-resistant Streptococcus pneumoniae BAA1407 by dilution susceptibility test; format: functional
Staphylococcus aureus [30] = assay: Antibacterial activity against Staphylococcus aureus LMG 10147 after 16 to 24 hrs by broth microdilution method; format: functional
Staphylococcus aureus [31] = assay: Antibacterial activity against tetracycline-resistant Staphylococcus aureus 4216 after 16 to 24 hrs by broth microdilution method; format: functional
Streptococcus pneumoniae [32] = assay: Antibacterial activity against quinolone-resistant Streptococcus pneumoniae TE 122-024 by dilution susceptibility test; format: functional
Staphylococcus aureus [33] = assay: Antibacterial activity against methicillin-resistant Staphylococcus aureus PICI after 16 to 24 hrs by broth microdilution method; format: functional
[34] = Cytotoxicity against human HuH7 cells after 48 hrs by XTT assay; format: cell-based, Huh-7
Streptococcus pneumoniae [35] = assay: Antibacterial activity against quinolone-sensitive Streptococcus pneumoniae 19A-TN by dilution susceptibility test; format: functional
Enterococcus faecalis [36] = assay: Antibacterial activity against vancomycin-sensitive Enterococcus faecalis 24 by dilution susceptibility test; format: functional

CCCCCCCCC[C@@H]1CC(O)=C(C(C)=O)C(=O)O1
MIC (Acinetobacter baumannii): > 64 µg/mL | CC50 at 48 h [1]: 71 µg/mL (≈ 251 µM) | MIC (Staphylococcus aureus [2]): 1.5 to 2.5 µg/mL (≈ 5.31 to 8.85 µM)

CCCCCCCCCC[C@@H]1CC(O)=C(C(=O)CCC)C(=O)O1
MIC (Acinetobacter baumannii): 8 to 16 µg/mL (≈ 24.7 to 49.3 µM) | CC50 at 48 h [1]: 25 µg/mL (≈ 77.1 µM) | MIC (Staphylococcus aureus [2]): 0.6 to 0.8 µg/mL (≈ 1.85 to 2.47 µM)

NC[C@H]1O[C@H](O[C@H]2[C@H](O)[C@@H](O[C@H]3O[C@H](CO)[C@@H](O)[C@H](N)[C@H]3O)[C@H](N)C[C@@H]2N)[C@H](O)[C@@H](O)[C@@H]1O [KANAMYCIN]
MIC (Enterococcus faecium): > 256 µg/mL | MIC (Enterococcus faecalis [3]): > 256 µg/mL

CCCCCCC[C@@H]1CC(O)=C(C(=O)CCC)C(=O)O1
MIC (Acinetobacter baumannii): > 64 µg/mL | MIC (Staphylococcus aureus [2]): 1 to 2 µg/mL (≈ 3.54 to 7.08 µM)

CCCCCCCCC[C@@H]1CC(O)=C(C(=O)CCCCC)C(=O)O1
MIC (Acinetobacter baumannii): 4 to 8 µg/mL (≈ 11.8 to 23.6 µM) | CC50 at 48 h [1]: 15 µg/mL (≈ 44.3 µM) | MIC (Staphylococcus aureus [2]): 0.6 to 0.8 µg/mL (≈ 1.77 to 2.36 µM)

CCCCCCCCC[C@@H]1CC(O)=C(C(=O)CCCC)C(=O)O1
MIC (Acinetobacter baumannii): 8 to 16 µg/mL (≈ 24.7 to 49.3 µM) | CC50 at 48 h [1]: 36 µg/mL (≈ 111 µM) | MIC (Staphylococcus aureus [2]): < 0.6 µg/mL

GENTAMICIN
MIC (Enterococcus faecium): > 256 µg/mL | MIC (Enterococcus faecalis [3]): > 256 µg/mL

CCCC(=O)C1=C(O)C[C@@H](CC)OC1=O
MIC (Acinetobacter baumannii): > 64 µg/mL | CC50 at 48 h [1]: > 100 µg/mL | MIC (Staphylococcus aureus [2]): > 50 µg/mL

CCCCCCCC[C@@H]1CC(O)=C(C(=O)CCC)C(=O)O1
MIC (Acinetobacter baumannii): 24 to 32 µg/mL (≈ 81 to 108 µM) | CC50 at 48 h [1]: 30 µg/mL (≈ 101 µM) | MIC (Staphylococcus aureus [2]): 0.8 to 1.5 µg/mL (≈ 2.7 to 5.06 µM)

CCCCCCCCCCC[C@@H]1CC(O)=C(C(=O)CCC)C(=O)O1
MIC (Acinetobacter baumannii): < 4 µg/mL | CC50 at 48 h [1]: 19 µg/mL (≈ 56.1 µM) | MIC (Staphylococcus aureus [2]): 0.1 to 0.2 µg/mL (≈ 0.295 to 0.591 µM)

CCCCCCCCC[C@@H]1CC(O)=C(C(=O)CCC)C(=O)O1
MIC (Staphylococcus aureus [4]): 2 µg/mL (≈ 6.44 µM) | MIC (Staphylococcus aureus [5]): 2 µg/mL (≈ 6.44 µM) | MIC (Streptococcus pneumoniae [6]): 4 µg/mL (≈ 12.9 µM) | MIC (Streptococcus pneumoniae [7]): 4 µg/mL (≈ 12.9 µM) | MIC (Pseudomonas aeruginosa): > 64 µg/mL | MIC (Streptococcus pyogenes [8]): 8 µg/mL (≈ 25.8 µM) | MIC (Klebsiella pneumoniae): > 64 µg/mL | MIC (Streptococcus pneumoniae [9]): 4 µg/mL (≈ 12.9 µM) | MIC (Staphylococcus aureus [10]): 0.1 to 0.25 µg/mL (≈ 0.322 to 0.805 µM) | MIC (Staphylococcus aureus [11]): 1 µg/mL (≈ 3.22 µM) | MIC (Staphylococcus aureus [12]): 0.1 to 0.25 µg/mL (≈ 0.322 to 0.805 µM) | MIC (Staphylococcus aureus [13]): 4 µg/mL (≈ 12.9 µM) | MIC [14]: 2 µg/mL (≈ 6.44 µM) | MIC (Staphylococcus aureus [15]): 2 µg/mL (≈ 6.44 µM) | MIC (Staphylococcus aureus [16]): 0.1 to 0.25 µg/mL (≈ 0.322 to 0.805 µM) | MIC (Staphylococcus aureus [17]): ≤ 0.1 µg/mL | MIC [18]: ≤ 0.5 µg/mL | MIC [19]: 1 µg/mL (≈ 3.22 µM) | MIC (Streptococcus pyogenes [20]): 8 µg/mL (≈ 25.8 µM) | CC50 at 48 h [21]: 4.7 µg/mL (≈ 15.1 µM) | MIC (Staphylococcus aureus [22]): 0.25 µg/mL (≈ 0.805 µM) | MIC (Streptococcus pyogenes [23]): 8 µg/mL (≈ 25.8 µM) | MIC (Bacillus cereus): ≤ 1 µg/mL | MIC (Staphylococcus aureus [24]): 4 µg/mL (≈ 12.9 µM) | MIC (Streptococcus pneumoniae [25]): 4 µg/mL (≈ 12.9 µM) | MIC (Enterococcus faecium): 2 µg/mL (≈ 6.44 µM) | MIC (Staphylococcus aureus [26]): 2 µg/mL (≈ 6.44 µM) | MIC (Escherichia coli): > 64 µg/mL | MIC (Staphylococcus aureus [27]): 2 µg/mL (≈ 6.44 µM) | MIC (Streptococcus pneumoniae [28]): 8 µg/mL (≈ 25.8 µM) | MIC (Streptococcus pneumoniae [29]): 8 µg/mL (≈ 25.8 µM) | MIC (Staphylococcus aureus [30]): 0.4 µg/mL (≈ 1.29 µM) | MIC (Staphylococcus aureus [31]): 2 µg/mL (≈ 6.44 µM) | MIC (Streptococcus pneumoniae [32]): 8 µg/mL (≈ 25.8 µM) | MIC (Staphylococcus aureus [33]): 4 µg/mL (≈ 12.9 µM) | CC50 at 48 h [34]: 40 µg/mL (≈ 129 µM) | MIC (Enterococcus faecalis [3]): 2 µg/mL (≈ 6.44 µM) | MIC (Acinetobacter baumannii): 12 to 24 µg/mL (≈ 38.7 to 77.3 µM) | CC50 at 48 h [1]: 33 µg/mL (≈ 106 µM) | MIC (Staphylococcus aureus [2]): 0.8 µg/mL (≈ 2.58 µM) | MIC (Streptococcus pneumoniae [35]): 8 µg/mL (≈ 25.8 µM) | MIC (Enterococcus faecalis [36]): 2 µg/mL (≈ 6.44 µM)

CN[C@H](CC(C)C)C(=O)N[C@H]1C(=O)N[C@@H](CC(N)=O)C(=O)N[C@H]2C(=O)N[C@H]3C(=O)N[C@H](C(=O)N[C@H](C(=O)O)c4cc(O)cc(O)c4-c4cc3ccc4O)[C@H](O)c3ccc(c(Cl)c3)Oc3cc2cc(c3O[C@@H]2O[C@H](CO)[C@@H](O)[C@H](O)[C@H]2O[C@H]2C[C@](C)(N)[C@H](O)[C@H](C)O2)Oc2ccc(cc2Cl)[C@H]1O [VANCOMYCIN]
MIC (Enterococcus faecium): > 256 µg/mL | MIC (Enterococcus faecalis [3]): > 256 µg/mL

CCCCCCCCC[C@@H]1CC(O)=C(C(=O)CC)C(=O)O1
MIC (Acinetobacter baumannii): 32 to 48 µg/mL (≈ 108 to 162 µM) | CC50 at 48 h [1]: 50 µg/mL (≈ 169 µM) | MIC (Staphylococcus aureus [2]): 0.7 µg/mL (≈ 2.36 µM)

NC[C@H]1O[C@H](O[C@H]2[C@H](O)[C@@H](O[C@H]3O[C@H](CO)[C@@H](O)[C@H](N)[C@H]3O)[C@H](N)C[C@@H]2N)[C@H](N)C[C@@H]1O [TOBRAMYCIN]
MIC (Enterococcus faecium): > 256 µg/mL | MIC (Enterococcus faecalis [3]): > 256 µg/mL
